The text below walks through data of patent publication US9067943B2, “[1,2,3]triazolo[4,5-D]pyrimidine derivatives” (priority 2011, dated 2015).

pEC50: −log10 of the molar value. Like-named read-outs stand apart in the source and are kept apart here. Bounds are passed on as bounds.

As a reminder, the pEC50 is the EC50 on a negative log10 scale, so that one unit is a factor of ten.

One assay concerns the target T1, human CB1 receptors (Homo sapiens, UniProt P21554).
T1 construct: expressed in transfected cells; host or cells: CHO cells
Nature of the assay: cAMP assay. In kind it is cell-based. As to the method: (§1) CHO cells expressing human CB1 or CB2 receptors are seeded 17-24 hours prior to the experiment 50.000 cells per well in a black 96 well plate with flat clear bottom (Corning Costar #3904) in DMEM (Invitrogen No. 31331), 1×HT supplement, with 10% fetal calf serum and incubated at 5% CO2 and 37° C. in a humidified incubator. The growth medium was exchanged with Krebs Ringer Bicarbonate buffer with 1 mM IBMX and incubated at 30° C. for 30 min. Compounds were added to a final assay volume of 100 μl and incubated for 30 min at 30° C. Using the cAMP-Nano-TRF detection kit the assay (Roche Diagnostics) was stopped by the addition of 50 μl lysis reagent (Tris, NaCl, 1.5% Triton X100, 2.5% NP40, 10% NaN3) and 50 μl detection solutions (20 μM mAb Alexa700-cAMP 1:1, and 48 μM Ruthenium-2-AHA-cAMP) and shaken for 2 h at room temperature. The time-resolved energy transfer is measured by a TRF reader (Evotec Technologies GmbH), equipped with a ND:YAG laser as excitation source. The plate is measured twice with the excitation at 355 nm and at the emission with a delay of 100 ns and a gate of 100 ns, total exposure time 10 s at 730 (bandwidth 30 nm) or 645 nm (bandwidth 75 nm), respectively. The FRET signal is calculated as follows: FRET=T730-Alexa730-P(T645-B645) with P=Ru730-B730/Ru645-B645, where T730 is the test well measured at 730 nM, T645 is the test well measured at 645 nm, B730 and B645 are the buffer controls at 730 nm and 645 nm, respectively. cAMP content is determined from the function of a standard curve spanning from 10 μM to 0.1 nM cAMP.
(§2) EC50 values were determined using Activity Base analysis (ID Business Solution, Limited). The EC50 values for a wide range of cannabinoid agonists generated from this assay were in agreement with the values published in the scientific literature.
In general terms: Cyclic AMP is a second messenger, typically raised through Gs and lowered through Gi signalling.

For another assay, the target named is T2, human CB2 receptors (Homo sapiens, UniProt P34972).
T2 construct: expressed in transfected cells; host or cells: CHO cells
T2 sequence (P34972 whole entry): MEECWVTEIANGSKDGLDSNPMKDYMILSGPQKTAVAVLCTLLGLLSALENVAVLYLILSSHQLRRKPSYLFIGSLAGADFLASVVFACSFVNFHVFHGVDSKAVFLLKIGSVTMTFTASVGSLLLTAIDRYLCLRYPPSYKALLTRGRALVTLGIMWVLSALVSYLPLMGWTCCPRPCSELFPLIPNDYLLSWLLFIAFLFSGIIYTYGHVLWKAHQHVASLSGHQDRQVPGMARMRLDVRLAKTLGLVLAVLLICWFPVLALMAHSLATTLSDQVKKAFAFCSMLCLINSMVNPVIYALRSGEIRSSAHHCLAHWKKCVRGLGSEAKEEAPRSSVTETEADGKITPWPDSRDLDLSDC
As to the kind of experiment: cAMP assay. The assay is classed as cell-based. How it is done: as §1, §2

T1 sequence (P21554 whole entry): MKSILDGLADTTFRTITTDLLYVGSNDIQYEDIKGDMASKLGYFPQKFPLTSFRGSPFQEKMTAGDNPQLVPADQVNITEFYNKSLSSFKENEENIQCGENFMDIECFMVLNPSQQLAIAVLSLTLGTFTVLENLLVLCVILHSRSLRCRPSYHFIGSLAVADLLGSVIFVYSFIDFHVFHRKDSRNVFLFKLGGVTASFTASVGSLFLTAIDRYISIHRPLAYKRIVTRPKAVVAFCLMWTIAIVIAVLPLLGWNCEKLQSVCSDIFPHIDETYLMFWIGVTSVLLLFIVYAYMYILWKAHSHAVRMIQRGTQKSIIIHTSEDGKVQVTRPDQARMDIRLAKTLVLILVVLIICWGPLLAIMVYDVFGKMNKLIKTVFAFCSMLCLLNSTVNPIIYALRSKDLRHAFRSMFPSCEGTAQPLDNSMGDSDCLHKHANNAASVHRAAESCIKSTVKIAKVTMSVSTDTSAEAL

As to “5-tert-Butyl-2-(1-cyclopropyl-1H-tetrazol-5-ylmethyl)-7-(2-oxa-6-aza-spiro[3.3]hept-6-yl)-2H-[1,2,3]triazolo[4,5-d]pyrimidine [Example 105]”, the pEC50 is under 5.00 at human CB1 receptors (functional cAMP assay, head printed human CB2 (probably human CB1), read-out: human CB2 EC50) and 6.96 on human CB2 receptors (functional cAMP assay, CHO cells expressing human CB2, read-out: human CB2 EC50).
In the case of `CC(C)(C)c1nc(N2CCOCC2)c2nn(Cc3ccccc3Cl)nc2n1` [Example 1, 5-tert-Butyl-2-(2-chloro-benzyl)-7-morpholin-4-yl-2H-[1,2,3]triazolo[4,5d]pyrimidine], the negative logarithm of the EC50 (pEC50) was under 5.00 on human CB1 receptors and 8.48 at human CB2 receptors.
For `CC(C)(C)c1nc(N2CCOCC2)c2nn(Cc3ccc(F)cc3Cl)nc2n1` [Example 2, 5-tert-Butyl-2-(2-chloro-4-fluoro-benzyl)-7-morpholin-4-yl-2H-[1,2,3]triazolo[4,5-d]pyrimidine], in that order: under 5.00 and 8.66.
For `CCn1nc2nc(C(C)(C)C)nc(N3CCC(F)(F)C3)c2n1` [Example 3, 5-tert-Butyl-7-(3,3-difluoro-pyrrolidin-1-yl)-2-ethyl-2H-[1,2,3]triazolo[4,5-d]pyrimidine], the results for the pEC50 at human CB1 receptors and at human CB2 receptors were under 5.00 and 7.73, respectively.
Regarding `COCCn1nc2nc(C(C)(C)C)nc(N3CCC(F)(F)C3)c2n1` [Example 4, 5-tert-Butyl-7-(3,3-difluoro-pyrrolidin-1-yl)-2-(2-methoxy-ethyl)-2H-[1,2,3]triazolo[4,5-d]pyrimidine], the results for the pEC50 on human CB1 receptors and at human CB2 receptors were under 5.00 and 8.10, respectively.
As to `CC(C)(C)c1nc(N2CCC(F)(F)C2)c2nn(CCO)nc2n1` [Example 5, 2-[5-tert-Butyl-7-(3,3-difluoro-pyrrolidin-1-yl)-[1,2,3]triazolo[4,5-d]pyrimidin-2-yl]-ethanol], the negative logarithm of the EC50 (pEC50) at human CB1 receptors was under 5.00; at human CB2 receptors, 7.19.
For `CC(C)(C)c1nc(N2CCC(F)(F)C2)c2nn(CC3CCCCC3)nc2n1` [Example 6, 5-tert-Butyl-2-cyclohexylmethyl-7-(3,3-difluoro-pyrrolidin-1-yl)-2H-[1,2,3]triazolo[4,5-d]pyrimidine], in that order: 6.51 and 9.30.
For the compound `CC(C)(C)c1nc(N2CCC(F)(F)C2)c2nn(Cc3cccc(Cl)c3)nc2n1` [Example 7, 5-tert-Butyl-2-(3-chloro-benzyl)-7-(3,3-difluoro-pyrrolidin-1-yl)-2H-[1,2,3]triazolo[4,5-d]pyrimidine], the pEC50 is under 5.00 on human CB1 receptors and 8.39 on human CB2 receptors.
For the compound `CC(C)(C)c1nc(N2CCC(F)(F)C2)c2nn(Cc3ccc(Cl)cc3)nc2n1` [Example 8, 5-tert-Butyl-2-(4-chloro-benzyl)-7-(3,3-difluoro-pyrrolidin-1-yl)-2H-[1,2,3]triazolo[4,5-d]pyrimidine], the negative logarithm of the EC50 (pEC50) at human CB1 receptors was under 5.00; on human CB2 receptors, 8.19.
On to `CC(C)(C)c1nc(N2CCC(F)(F)C2)c2nn(Cc3cccc(Cl)c3Cl)nc2n1` [Example 9, 5-tert-Butyl-2-(2,3-dichloro-benzyl)-7-(3,3-difluoro-pyrrolidin-1-yl)-2H-[1,2,3]triazolo[4,5-d]pyrimidine], for which the figures for the pEC50 on human CB1 receptors and on human CB2 receptors were under 5.00 and 8.47, respectively.
For the compound `CC(C)(C)c1nc(N2CCC(F)(F)C2)c2nn(Cc3ccc(Cl)cc3Cl)nc2n1` [Example 10, 5-tert-Butyl-2-(2,4-dichloro-benzyl)-7-(3,3-difluoro-pyrrolidin-1-yl)-2H-[1,2,3]triazolo[4,5-d]pyrimidine], the results for the negative-log EC50 (pEC50) at human CB1 receptors and at human CB2 receptors were under 5.00 and 8.39, respectively.
Turning to `CC(C)(C)c1nc(N2CCC(F)(F)C2)c2nn(Cc3cc(Cl)ccc3Cl)nc2n1` [Example 11, 5-tert-Butyl-2-(2,5-dichloro-benzyl)-7-(3,3-difluoro-pyrrolidin-1-yl)-2H-[1,2,3]triazolo[4,5-d]pyrimidine], the negative-log EC50 (pEC50) on human CB1 receptors is under 5.00; on human CB2 receptors, 8.92.
Taken in the same sequence, the figures for `CC(C)(C)c1nc(N2CCC(F)(F)C2)c2nn(Cc3c(Cl)cccc3Cl)nc2n1` [Example 12, 5-tert-Butyl-2-(2,6-dichloro-benzyl)-7-(3,3-difluoro-pyrrolidin-1-yl)-2H-[1,2,3]triazolo[4,5-d]pyrimidine] were under 5.00 and 8.82.
Consider `CC(C)(C)c1nc(N2CCC(F)(F)C2)c2nn(Cc3ccc(F)cc3Cl)nc2n1` [Example 13, 5-tert-Butyl-2-(2-chloro-4-fluoro-benzyl)-7-(3,3-difluoro-pyrrolidin-1-yl)-2H-[1,2,3]triazolo[4,5-d]pyrimidine], for which the negative-log EC50 (pEC50) is under 5.00 at human CB1 receptors and 9.00 at human CB2 receptors.
For `CC(C)(C)c1nc(N2CCC(F)(F)C2)c2nn(Cc3c(F)cccc3Cl)nc2n1` [Example 14, 5-tert-Butyl-2-(2-chloro-6-fluoro-benzyl)-7-(3,3-difluoro-pyrrolidin-1-yl)-2H-[1,2,3]triazolo[4,5-d]pyrimidine], in that order: 7.19 and 9.30.
As to `CC(C)(C)c1nc(N2CCC(F)(F)C2)c2nn(Cc3ccccn3)nc2n1` [Example 15, 5-tert-Butyl-7-(3,3-difluoro-pyrrolidin-1-yl)-2-pyridin-2-ylmethyl-2H-[1,2,3]triazolo[4,5-d]pyrimidine], the negative logarithm of the EC50 (pEC50) was 6.68 on human CB1 receptors and 9.15 at human CB2 receptors.
Regarding `CC(C)(C)c1nc(N2CCC(F)(F)C2)c2nn(Cc3cccnc3)nc2n1` [Example 16, 5-tert-Butyl-7-(3,3-difluoro-pyrrolidin-1-yl)-2-pyridin-3-ylmethyl-2H-[1,2,3]triazolo[4,5-d]pyrimidine], the pEC50 on human CB1 receptors is under 5.00; on human CB2 receptors, 8.41.
Taken in the same sequence, the figures for `CC(C)(C)c1nc(N2CCC(F)(F)C2)c2nn(Cc3ccncc3)nc2n1` [Example 17, 5-tert-Butyl-7-(3,3-difluoro-pyrrolidin-1-yl)-2-pyridin-4-ylmethyl-2H-[1,2,3]triazolo[4,5-d]pyrimidine] were under 5.00 and 9.10.
Taken in the same sequence, the figures for `CC(C)(C)c1nc(N2CCC(F)(F)C2)c2nn(CC(F)(F)F)nc2n1` [Example 18, 5-tert-Butyl-7-(3,3-difluoro-pyrrolidin-1-yl)-2-(2,2,2-trifluoro-ethyl)-2H-[1,2,3]triazolo[4,5-d]pyrimidine] were under 5.00 and 8.85.
Taken in the same sequence, the figures for `CC(C)(C)c1nc(N2CCC(F)(F)C2)c2nn(Cc3cc(F)c(F)cc3Cl)nc2n1` [Example 19, 5-tert-Butyl-2-(2-chloro-4,5-difluoro-benzyl)-7-(3,3-difluoro-pyrrolidin-1-yl)-2H-[1,2,3]triazolo[4,5-d]pyrimidine] were under 5.00 and 8.66.
With `CC(C)(C)c1nc(N2CCC(F)(F)C2)c2nn(Cc3c(F)ccc(F)c3Cl)nc2n1` [Example 20, 5-tert-Butyl-2-(2-chloro-3,6-difluoro-benzyl)-7-(3,3-difluoro-pyrrolidin-1-yl)-2H-[1,2,3]triazolo[4,5-d]pyrimidine], the pEC50 is 7.47 at human CB1 receptors and 9.70 at human CB2 receptors.
Take `CC(C)(C)c1nc(N2CCC(F)(F)C2)c2nn(Cc3ccccc3Br)nc2n1` [Example 21, 2-(2-Bromo-benzyl)-5-tert-butyl-7-(3,3-difluoro-pyrrolidin-1-yl)-2H-[1,2,3]triazolo[4,5-d]pyrimidine]: the pEC50 on human CB1 receptors was 6.74; on human CB2 receptors, 10.00.
In the case of `CC(C)(C)c1nc(N2CCC(F)(F)C2)c2nn(Cc3ccccc3C(F)(F)F)nc2n1` [Example 22, 5-tert-Butyl-7-(3,3-difluoro-pyrrolidin-1-yl)-2-(2-trifluoromethyl-benzyl)-2H-[1,2,3]triazolo[4,5-d]pyrimidine], the negative-log EC50 (pEC50) at human CB1 receptors is under 5.00; at human CB2 receptors it was 9.70.
For the compound `COc1ccccc1Cn1nc2nc(C(C)(C)C)nc(N3CCC(F)(F)C3)c2n1` [Example 23, 5-tert-Butyl-7-(3,3-difluoro-pyrrolidin-1-yl)-2-(2-methoxy-benzyl)-2H-[1,2,3]triazolo[4,5-d]pyrimidine], the negative logarithm of the EC50 (pEC50) on human CB1 receptors was 7.07; at human CB2 receptors, 9.70.
Compound `CC(C)(C)c1nc(N2CCC(F)(F)C2)c2nn(Cc3cccc(F)c3Cl)nc2n1` [Example 30, 5-tert-Butyl-2-(2-chloro-3-fluoro-benzyl)-7-(3,3-difluoro-pyrrolidin-1-yl)-2H-[1,2,3]triazolo[4,5-d]pyrimidine] gave a pEC50 on human CB2 receptors of 9.15.
`CC(C)(C)c1nc(N2CCC(F)(F)C2)c2nn(Cc3cc(F)ccc3Cl)nc2n1` [Example 31, 5-tert-Butyl-2-(2-chloro-5-fluoro-benzyl)-7-(3,3-difluoro-pyrrolidin-1-yl)-2H-[1,2,3]triazolo[4,5-d]pyrimidine] showed a negative logarithm of the EC50 (pEC50) at human CB2 receptors of 9.30.
As to `CC(C)(C)c1nc(N2CCC(F)(F)C2)c2nn(C3COC3)nc2n1` [Example 32, 5-tert-Butyl-7-(3,3-difluoro-pyrrolidin-1-yl)-2-oxetan-3-yl-2H-[1,2,3]triazolo[4,5-d]pyrimidine], at human CB2 receptors, the negative logarithm of the EC50 (pEC50) was 7.72.
